Data published in patent publication US20240009137A1, “ORAL THERAPEUTIC DELIVERY” (ROYAL MELBOURNE INSTITUTE OF TECHNOLOGY, priority 2020, published 2024).
Values joined by “and” are separate entries in the source; they are usually repeats but may differ in a detail not shown here. Equal values may be shown once.

Tests used:
[1] = Human growth hormone in blood plasma (ELISA) after SC injection or oral capsule; format: in vivo, Sprague Dawley rats
Protocol: Four male Sprague Dawley rats were used as controls. Each rat was anaesthetised with isoflurane followed by preparation of the saphenous vein. The rats were given 1 mg/kg of human growth hormone via SC injection, immediately following this they were placed on a heat-mat until they regained consciousness, before being housed in pairs in boxes. Blood collection (150 μl) was taken via the saphenous vein at 0, 30-, 70-, 120-, 180-, 240- and 360-mins post-injection. The blood concentration of the protein in the blood was tested using the relevant ELISA kit for human growth hormone.
(§1) Eight male Sprague Dawley rats were used. Each rat was anaesthetised with isoflurane followed by preparation of the saphenous vein and the first blood collection (150 μl). An enteric capsule with a thick polymer coating of approximately 160 μm containing 1 mg/kg of the human growth hormone encapsulated in MO lipid cubic phase was then introduced via oral gavage into the rat stomach. Immediately following this they were placed on a heat-mat until they regained consciousness, before being housed in pairs. Blood collection (150 μl) was taken via the saphenous vein at 0, 35-, 50-, 120-,180-, 240- and 360-mins post-injection
(§2) All data are analysed on a Clariostar Plate Reader to determine concentration against a standard curve for the relevant drug.
(§3) Concentrations provided in FIGS. 10-13 are the measured concentration of the drug in the blood plasma (determined using specific Elisa kits) and are in units of ng/ml. The initial drug concentration measured at the 0 time point has been set to zero in each case and other data scaled relative to this.

[2] = system: blood glucose of diabetic Sprague Dawley rats; assay: Blood glucose levels in STZ-induced diabetic rats after insulin by SC injection or oral capsule; format: in vivo; details: for time over which BG levels continued to decrease: 1 IU SC injection; for Percentage of SC injection (%), efficacy of oral delivery: MO cubic phase
Protocol: 14 Sprague Dawley rats were used in this trial. One week before each phase started, all rats were given isoflurane until unconscious. Each rat was then injected intravenously in the tail with 60 mg/kg of streptozotocin (STZ) in a sodium citrate buffer. All rats were then housed in pairs and blood glucose was monitored 3 times per day over 48 hours. The induction of diabetes was confirmed when the blood glucose level was >14 mmol/L in the morning.
The rats were then housed in pairs in two boxes. Blood collection was taken at 5-, 360-, and 1440-minutes post-injection, and the BG level tested at each time point.
Four Sprague Dawley rats were used in Phase 1 and four in Phase 2. Each was initially given isoflurane until unconscious. This was followed by preparation of the saphenous vein and the baseline basal BG was tested. […] Blood collection (10 μl) was taken at 15-, 30-, 60-, 120-, and 360-minutes post-injection. BG testing was performed immediately at each time point using an Accu Chek BG monitor and strips.
Four Sprague Dawley rats were used in Phase 1 and four in Phase 2. Each was initially given isoflurane until unconscious. This was followed by preparation of the saphenous vein and the baseline basal BG was tested. […] Blood collection (10 μl) was taken at 30-, 60-, 120-, 360-, and 465-minutes post-injection. BG testing was performed immediately at each time point using an Accu Chek BG monitor and strips. One rat didn't develop diabetes and one rat had kidney problems. In each case, the AWO (Animal Welfare Officer) was consulted and both rats were removed from the trial.
Four Sprague Dawley rats were used in this part of the trial. Each was initially given isoflurane until unconscious. This was followed by preparation of the saphenous vein and the first blood collection (10 μl) and BG testing. […] Blood collection (10 μl) was taken at 75-, 120-, 180-, 240-, 300- and 360- minutes, and BG testing was performed at each time point using an Accu Chek BG monitor and strips.
Two Sprague Dawley rats were used in this part of the trial. Each was initially given isoflurane until unconscious. This was followed by preparation of the saphenous vein and the first blood collection (10 μl) and BG testing. […] Immediately following this they were placed on a heat-mat until they regained consciousness, before being housed in pairs in boxes. Blood collection (10 μl) was taken at 105-, 135-, 165-, 210-, 345- and 460- minutes, and BG testing was performed at each time point using an Accu Chek BG monitor and strips.
Four Sprague Dawley rats were used in this part of the trial. Each was initially given isoflurane until unconscious. This was followed by preparation of the saphenous vein and the first blood collection (10 μl) and BG testing. […] Immediately following this they were placed on a heat-mat until they regained consciousness, before being housed in pairs in boxes. Blood collection (10 μl) was taken at 45-, 75-, 120-, 160-, 220-, 260-, 300- and 360- minutes, and BG testing was performed at each time point using an Accu Chek BG monitor and strips.
Two Sprague Dawley rats were used in this part of the trial. Each was initially given isoflurane until unconscious. This was followed by preparation of the saphenous vein and the first blood collection (10 μl) and BG testing. […] Immediately following this they were placed on a heat-mat until they regained consciousness, before being housed in pairs in boxes. Blood collection (10 μl) was taken at 30-, 60-, 80-, 125-, 180-, 280-, 340-, 400- and 460- minutes, and BG testing was performed at each time point using an Accu Chek BG monitor and strips.

[3] = Fluorescence recovery after photobleaching (FRAP), diffusion coefficient; format: physicochemical
Protocol: FRAP was performed on a Nikon confocal microscope. […] A bleaching and background region of interest (ROI) was used to selectively photobleach an area of the cubic phase and the fluorescence recovery curve was recorded with time. The excitation/emission wavelengths used were 553/627 nm for the octadecyl rhodamine B chloride. […] […] The open source Matlab code frap_analysis_2p5 was used to determine diffusion coefficients μ from FRAP data.

in vivo = assay: in vivo; set-up: species or system Sprague Dawley rats; details: male, Sprague-Dawley, rat, 1 mg/kg
Protocol: Four male Sprague Dawley rats were used as controls. Each rat was anaesthetised with isoflurane followed by preparation of the saphenous vein. The rats were given 1 mg/kg of meropenem via SC injection, immediately following this they were placed on a heat-mat until they regained consciousness, before being housed in pairs in boxes. Blood collection (150 μl) was taken via the saphenous vein at 0, 30-, 70-, 120-, 180-, 240- and 360-mins post-injection. The blood concentration of the protein in the blood was tested using the relevant ELISA kit for meropenem.
as §1, with “meropenem” for “the human growth hormone”, “120-, 180-,” for “120-,180-,”, “post-injection.” for “post-injection”
as §2, §3

[4] = oral enteric capsule vs SC, 1 mg/kg
[5] = oral enteric capsule, MO cubic phase, 1 mg/kg
[6] = 1 IU oral, MO cubic phase in enteric capsule T=3, Phase 1, Rats 2-4

## human growth hormone: Human Growth Hormone (MyBioSource), given SC or in MO cubic phase within enteric capsule
[1]; SC injection 1 mg/kg
  time at which total amount of protein delivered (AUC) reaches a plateau: approximately 180 min
  time by which baseline drug concentrations are reached: ≤ 300 min
  time of maximum plasma concentration: 60 min
[1]; SC injection 1 mg/kg, range over four rats
  maximum drug concentration in blood plasma: 20 to 32 ng/mL
[1]; oral enteric capsule (approx. 160 μm coating), MO cubic phase, 1 mg/kg, range over rats
  maximum drug concentration in blood plasma: 19 to 24 ng/mL
[1]; [4]
  maximum drug plasma concentration as % of that following SC injection: 81%
  overall bioavailability as % of that following SC injection: 87.2%
[1]; [5]
  lag period before total protein delivered starts to increase: 30 min
  time at which total protein delivered (AUC) reaches a plateau: around 240 mins
  time by which baseline drug concentrations are reached: ≤ 240 min
  time of maximum plasma concentration: 50 min

## Actrapid insulin: fast acting insulin (Actrapid, Novo Nordisk), given SC or in MO cubic phase within enteric capsule
[2]; Phase 1
  time over which BG levels continued to decrease: approximately 110 mins
[2]; Phase 2
  time over which BG levels continued to decrease: approximately 120 mins
[2]; 1 IU oral, MO cubic phase in enteric capsule T=1, Phase 2, Rats 5-8
  lead time: BG levels continued to increase after oral administration: approximately 60 mins
[2]; 1 IU oral, MO cubic phase in enteric capsule T=1, Phase 2, individual Rats 5, 6, 7, 8 in this order
  overall decrease in BG: 6.2 mmol/L and 8.7 mmol/L and 11.4 mmol/L and 4.6 mmol/L
[2]; [6]
  lead time: BG levels continued to increase after oral administration: 100 to 110 min
  time period over which BG levels decreased: 70 to 180 min
[2]; 1 IU oral, MO cubic phase in enteric capsule T=3, Phase 1, individual Rats 2, 3, 4 in this order
  overall decrease in BG: 3.6 mmol/L and 3.1 mmol/L and 3.4 mmol/L
[2]; 15 IU by SC injection, pre-trial period, diabetic rats
  time BG levels remained below 14 mmol/L: approximately 450 minutes
[2]; Rat 1, perforated enterically coated capsule shell with lipid cubic phase, 1 IU, Phase 1 (comparative)
  response of blood glucose to oral administration: not pronounced
[2]; SC injection, 1 IU (reference)
  Percentage of SC injection (%): 100%
[2]; oral capsule T = 1 (thinner coating), 1 IU, listed as Fast Acting Insulin
  Percentage of SC injection (%), efficacy of oral delivery: 93.1%
[2]; oral capsule T = 1 (thinner coating), 1 IU, listed as fast-acting insulin
  Percentage of SC injection (%), efficacy of oral delivery: 93%
[2]; oral capsule T = 3 (thicker coating), 1 IU, listed as Fast Acting Insulin
  Percentage of SC injection (%), efficacy of oral delivery: 56.1%
[2]; oral capsule T = 3 (thicker coating), 1 IU, listed as fast-acting insulin
  Percentage of SC injection (%), efficacy of oral delivery: 56%

## CCCCCCCCCCCCCCCCCCOC(=O)c1ccccc1-c1c2ccc(=[N+](CC)CC)cc-2oc2cc(N(CC)CC)ccc12.[Cl-] [Octadecyl rhodamine B chloride, octadecyl rhodamine B chloride]
[3]; in MO QII^D bulk cubic phase (insulin: FITC labelled, 5 mg/ml)
  Diffusion Coefficient: 0.97 ×10^−6 cm^2 s^−1
[3]; in PT QII^D bulk cubic phase (insulin: FITC labelled, 5 mg/ml)
  Diffusion Coefficient: 0.59 ×10^−6 cm^2 s^−1

## C[C@@H](O)[C@H]1C(=O)N2C(C(=O)O)=C(S[C@@H]3CN[C@H](C(=O)N(C)C)C3)[C@H](C)[C@H]12 [meropenem]
In vivo
  bioavailability: 58%
  maximum drug plasma concentration as % of that following SC injection: 55%
In vivo; po
  maximum drug concentration in blood plasma: 19 to 23 ng/mL
  time by which baseline drug concentrations are reached: ≤ 180 min
  time of maximum plasma concentration: 50 min
In vivo; sc
  maximum drug concentration in blood plasma: 37 to 40 ng/mL
  time by which baseline values are reached: ≤ 240 min
  time of maximum plasma concentration: 30 min
